This note sets out measurements from PMC9877316, “Identification of a novel P2X7 antagonist using structure-based virtual screening” (Frontiers in Pharmacology, 2023).

The structures appear in SMILES notation. Converted amounts (≈) assume the structure as drawn.

One data set deals with T1, human P2X4 (Homo sapiens, UniProt Q99571).
T1 construct: expressed in transfected cells
T1 sequence (Q99571 1-388): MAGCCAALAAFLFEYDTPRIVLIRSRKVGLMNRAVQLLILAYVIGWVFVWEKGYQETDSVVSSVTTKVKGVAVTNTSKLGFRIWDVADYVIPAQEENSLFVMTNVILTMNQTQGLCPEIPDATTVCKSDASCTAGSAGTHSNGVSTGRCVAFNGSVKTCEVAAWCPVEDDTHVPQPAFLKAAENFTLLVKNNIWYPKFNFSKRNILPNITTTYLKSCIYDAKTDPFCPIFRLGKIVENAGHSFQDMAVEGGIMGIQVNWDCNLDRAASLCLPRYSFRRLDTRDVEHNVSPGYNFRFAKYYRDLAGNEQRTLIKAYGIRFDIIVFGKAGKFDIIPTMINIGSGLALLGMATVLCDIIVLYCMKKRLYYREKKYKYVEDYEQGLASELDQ
Description: Fluo-4 ATP-induced calcium influx assay. Format: cell-based. The note with it: 10 µM compound; 1.2 µM ATP; 1321N1 cells. The protocol: 1321N1 astrocytoma cells and HEK-293 cells were cultured (at 37°C, 5% CO2) in Dulbecco’s modified Eagle’s medium (DMEM/F-12 with Glutamax) supplemented with 10% foetal bovine serum (FBS) and 200 unit/ml of penicillin and streptomycin antibiotics (Fisher Scientific). […]
Cells were plated the day before assay into poly-lysine-coated 96-well plates at 40–65,000 cells/ml. […] A Fluoroskan Ascent FL plate reader (Fisher Scientific) equipped with a solution dispenser and an appropriate filter pair (excitation: 485 nm, emission: 538 nm) was used to record 5 s baseline followed by P2X4-mediated calcium influx measurements for 20–25 s after ATP stimulation (20 μL injection of solutions dissolved in modified Ringer’s buffer).
The antagonist activity of the 17 compounds (applied at 10 µM) was assayed initially on 1321N1 astrocytoma cells stably expressing human P2X4 receptors by measuring the ATP-induced (applied at 1.2 µM) increase in Fluo-4 fluorescence due to calcium influx via P2X4, using 2 µM BX430 as a positive control (Figure 1A). […] The ATP-induced rate of uptake of YoPro-1 dye was measured upon application of at 300 µM ATP, using .1 µM A740003 as a positive control (Figure 1B).

In another data set the test system is HEK-293. Nature of the data set: CellTiter-Blue cell viability assay. Format: cell-based, human. The settings on record: 30 µM compound; 24 h incubation; HEK-293 wild-type. The protocol:
To assess hit compound toxicity, CellTiter-Blue Cell Viability Assay (Promega, Southampton, United Kingdom) was used as recommended by the manufacturer on not transfected HEK-293. Cells were seeded in 96-well plates (100 μL at a concentration of 30–35,000 cells/ml) in culture media and a day later media was replaced with 100 µL fresh media containing 30 µM of tested compounds (10 µM of A740003). After 24 h incubation at 37 °C, 5% CO2, 20 µL of CellTiter Blue reagent was added to each well and incubated for 3 h at 37°C. Fluorescence was then measured with a BMG Clariostar using excitation/emission wavelengths of 560/590 nm. Data were normalized to vehicle control-treated cells (.1% DMSO).
(Resazurin is reduced to fluorescent resorufin, in cell work by metabolically active cells.)

The next data set in a line: Solubility observations. Format: physicochemical. The note with it: read-out: maximum concentration that could be applied (due to solubility issues).

Consider `COC(=O)C1=C(C)NC2=C(C(=O)c3ccccc32)C1c1cc(Br)ccc1OCC(=O)O` (stereo not drawn) [Compound 9, (4-bromo-2-(3-(methoxycarbonyl)-2-methyl-5-oxo-4,5-dihydro-1H-indeno(1,2-b)pyridine-4-yl)phenoxy)acetic acid], for which, at human P2X4, the “antagonist activity at human P2X4” value is on record as “no activity”. Also, in the data set with HEK-293, the cell viability result is given as “did not significantly reduce cell viability”. The solubility in the data set “Solubility observations” came out at 100 µM (≈ 48.4 µg/mL).
